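Interpolation was linear, between the two tested concentrations surrounding the appropriate level; five concentrations were tested over 48 hours in 96-well plates. TGI is the concentration that stops growth completely.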
Tests used:
Assay in all cases: DTP human tumour cell line panel, 48 h
[1] = system: RXF 393 renal
[2] = system: SK-MEL-2 melanoma
[3] = system: PC-3 prostate
[4] = system: RPMI-8226 leukemia
[5] = system: OVCAR-8 ovarian
[6] = system: MCF7 breast
[7] = system: DU-145 prostate
[8] = system: MDA-MB-435
[9] = system: HT29 colon
[10] = system: COLO 205 colon
[11] = system: TK-10 renal
[12] = system: UACC-62 melanoma
[13] = system: SF-295 CNS
[14] = system: SW-620 colon
[15] = system: SNB-19 CNS
[16] = system: KM12 colon
[17] = system: UO-31 renal
[18] = system: SR leukemia
[19] = system: K-562 leukemia
[20] = system: MALME-3M melanoma
[21] = system: HCT-116 colon
[22] = system: LOX IMVI melanoma
[23] = system: EKVX NSCLC
[24] = system: HOP-62 NSCLC
[25] = system: SF-539 CNS
[26] = system: CAKI-1 renal
[27] = system: NCI-H460 lung
[28] = system: OVCAR-4 ovarian
[29] = system: OVCAR-5 ovarian
[30] = system: SK-MEL-5 melanoma
[31] = system: HCC-2998 colon
[32] = system: SF-268 CNS
[33] = system: MDA-MB-231 breast
[34] = system: NCI/ADR-RES ovarian
[35] = system: A549 NSCLC
[36] = system: NCI-H23 lung
[37] = system: MOLT-4 leukemia
[38] = system: HL-60(TB) leukemia
[39] = system: SNB-75 CNS
[40] = system: NCI-H226 lung
[41] = system: ACHN renal
[42] = system: HOP-92 NSCLC
[43] = system: HCT-15 colon
[44] = system: SK-OV-3 ovarian
[45] = system: HS 578T breast
[46] = system: U251 CNS
[47] = system: A498 renal
[48] = system: OVCAR-3 ovarian
[49] = system: CCRF-CEM leukemia
[50] = system: 786-0 renal
[51] = system: M14 melanoma
[52] = system: SN12C renal
[53] = system: SK-MEL-28 melanoma
[54] = system: IGROV1 ovarian
[55] = system: T-47D breast
[56] = system: NCI-H522 lung

Q: Which results are given for `Cc1ccc(S(=O)(=O)NC(=O)Nc2ccc(C(=O)O)c(O)c2)cc1`?
A: TGI [1]: > 100 µM; TGI [2]: > 100 µM; TGI [3]: > 100 µM; TGI [4]: > 100 µM; TGI [5]: > 100 µM; TGI [6]: > 100 µM; TGI [7]: > 100 µM; TGI [8]: > 100 µM; TGI [9]: > 100 µM; TGI [10]: > 100 µM; TGI [11]: > 100 µM; TGI [12]: > 100 µM; TGI [13]: > 100 µM; TGI [14]: > 100 µM; TGI [15]: > 100 µM; TGI [16]: > 100 µM; TGI [17]: > 100 µM; TGI [18]: > 100 µM; TGI [19]: > 100 µM; TGI [20]: > 100 µM; TGI [21]: > 100 µM; TGI [22]: > 100 µM; TGI [23]: > 100 µM; TGI [24]: > 100 µM; TGI [25]: > 100 µM; TGI [26]: > 100 µM; TGI [27]: > 100 µM; TGI [28]: > 100 µM; TGI [29]: > 100 µM; TGI [30]: > 100 µM; TGI [31]: > 100 µM; TGI [32]: > 100 µM; TGI [33]: > 100 µM; TGI [34]: > 100 µM; TGI [35]: > 100 µM; TGI [36]: > 100 µM; TGI [37]: > 100 µM; TGI [38]: > 100 µM; TGI [39]: > 100 µM; TGI [40]: > 100 µM; TGI [41]: > 100 µM; TGI [42]: > 100 µM; TGI [43]: > 100 µM; TGI [44]: > 100 µM; TGI [45]: > 100 µM; TGI [46]: > 100 µM; TGI [47]: > 100 µM; TGI [48]: > 100 µM; TGI [49]: > 100 µM; TGI [50]: > 100 µM; TGI [51]: > 100 µM

Q: Which TGI [2] does the source give for `Cc1cc(-c2no[n+]([O-])c2-c2cc(C)sc2S(C)(=O)=O)c(S(C)(=O)=O)s1` here?
A: > 100 µM

Q: And the TGI [3]?
A: > 100 µM

Q: What about the TGI [4] of the same molecule?
A: > 100 µM

Q: And the TGI [5]?
A: > 100 µM

Q: What about the TGI [52] of the same molecule?
A: > 100 µM

Q: And the TGI [8]?
A: > 100 µM

Q: And the TGI [9]?
A: > 100 µM

Q: And the TGI [10]?
A: > 100 µM

Q: And the TGI [11]?
A: > 100 µM

Q: And the TGI [13]?
A: > 100 µM

Q: And the TGI [14]?
A: > 100 µM

Q: And the TGI [15]?
A: 75.1 µM

Q: And the TGI [16]?
A: > 100 µM

Q: What about the TGI [17] of the same molecule?
A: > 100 µM

Q: And the TGI [18]?
A: > 100 µM

Q: And the TGI [19]?
A: > 100 µM

Q: And the TGI [21]?
A: > 100 µM

Q: And the TGI [22]?
A: > 100 µM

Q: What about the TGI [23] of the same molecule?
A: > 100 µM

Q: What about the TGI [24] of the same molecule?
A: > 100 µM

Q: And the TGI [25]?
A: > 100 µM

Q: And the TGI [26]?
A: > 100 µM

Q: And the TGI [27]?
A: > 100 µM

Q: And the TGI [28]?
A: > 100 µM

Q: What about the TGI [29] of the same molecule?
A: > 100 µM

Q: What about the TGI [30] of the same molecule?
A: > 100 µM

Q: And the TGI [31]?
A: > 100 µM

Q: And the TGI [32]?
A: > 100 µM

Q: And the TGI [33]?
A: > 100 µM

Q: And the TGI [34]?
A: > 100 µM

Q: What about the TGI [53] of the same molecule?
A: > 100 µM

Q: What about the TGI [54] of the same molecule?
A: > 100 µM

Q: What about the TGI [36] of the same molecule?
A: > 100 µM

Q: And the TGI [37]?
A: > 100 µM

Q: And the TGI [39]?
A: > 100 µM

Q: What about the TGI [40] of the same molecule?
A: > 100 µM

Q: What about the TGI [41] of the same molecule?
A: > 100 µM

Q: And the TGI [55]?
A: > 100 µM

Q: And the TGI [42]?
A: > 100 µM

Q: What about the TGI [43] of the same molecule?
A: > 100 µM

Q: And the TGI [44]?
A: > 100 µM

Q: And the TGI [45]?
A: > 100 µM

Q: What about the TGI [46] of the same molecule?
A: > 100 µM

Q: What about the TGI [47] of the same molecule?
A: > 100 µM

Q: And the TGI [48]?
A: > 100 µM

Q: And the TGI [49]?
A: > 100 µM

Q: And the TGI [56]?
A: > 100 µM

Q: What about the TGI [50] of the same molecule?
A: > 100 µM

Q: And the TGI [51]?
A: > 100 µM

From PubChem BioAssay (NCI)
